These results are taken from PMC6941952, “A homogeneous bioluminescent immunoassay to probe cellular signaling pathway regulation” (Communications Biology, 2020).

Where “and” joins values, the source holds several entries; their conditions need not be identical. Equal values may be shown once.

This test has as its system total IκBα. The test can be described thus: NanoBiT cell-based immunoassay, total IκBα in MCF-7 cells. Set-up: species or system human. As to conditions: for IKB with CHX Raw data / IKB with CHX Subtract reagent background / IkB Average: with CHX; for IkB Average: background subtracted. The method, then:
Prior to NanoBiT Cell-Based Immunoassay, 50,000 cells were seeded in 160 µl of complete growth media per well of a 96-well plate and incubated overnight. […] If necessary, the cell culture media were replaced with serum-free media after the cells were stably adherent on the plate and incubated overnight. To treat cells with activators or inhibitors, medium was changed to 30 µl of medium containing inhibitors. If activation of a specific pathway is needed, the cells were stimulated with 10 µl of medium containing activators. To lyse the cells, 10 µl of lysis buffer containing 0.1% digitonin diluted in 1X immunoassay buffer with protease and phosphatase inhibitors was added and the plates were mixed vigorously for 20 min. Then, 50 µl of an antibody mix containing two primary antibodies against the target protein and NanoBiT detecting antibodies (0.3 µl each per well), diluted in 1X immunoassay buffer was added to the lysates. The plates were incubated at 23 °C for 90 min, followed by the addition of 25 µl of Nano-Glo® reagent consisting of Nano-Glo® Luciferase Assay Substrate mixed with 1X immunoassay buffer. Luminescence was measured using a plate-reading luminometer.
Single dose or dose response inhibitor treatments were performed prior to activation of the pathways as follows. For IκBα, the cells were treated in 30 µl medium with IKK16 or MG132 for 60 min before the addition of 10 µl of DMEM containing appropriate concentration of TNFα. To measure phosphorylation of AKT or STAT3, the corresponding NanoBiT immunoassays were developed with MCF-7 or A431 cells, respectively, according the same scheme used to develop the IκBα assay using the primary antibodies for AKT and STAT3 described in the reagents section. […] Treatment with LY294002 was performed in 30 µl medium and cells were incubated for 60 min before the addition of 1 µM Insulin. To measure STAT3 phosphorylation, A431 cells were incubated overnight in DMEM medium without serum. […] After addition of the stimulators, the cells were incubated for additional times as follows. IκBα phosphorylation and degradation analyses required both time courses and single time points as described in figures. […] The NanoBiT immunoassay protocol was followed as described above.
All 96-well assay plates were read using a GloMax® 96 Microplate Luminometer from Promega. The instrument was set to 0.5 s integration time. In order to obtain net change of signal, the reagent background values (signal from the well containing all reagent except primary antibodies) were subtracted from the sample values. To plot and analyze the data, Microsoft Excel and GraphPad Prism® Software were used. IC50 values were determined by using a nonlinear regression fit to a sigmoidal dose response (variable slope).

For `C[C@@H]1C[C@@H]([C@H](O)CC2CC(=O)NC(=O)C2)C(=O)[C@@H](C)C1` [CHX], the “IKB with CHX Raw data” value is 55360 and 57660 and 54100 and 60230 (TNF 0 min); 58100 and 62010 and 65600 and 63320 (TNF 5 min); 40310 and 45450 and 45320 and 45290 (TNF 10 min); 19760 and 23860 and 25280 (TNF 20 min); 17770 and 17940 and 21410 and 21590 (TNF 30 min); 17270 and 17950 and 20500 and 19500 (TNF 40 min). Besides, the “IKB with CHX Raw data” value was 18390 and 17430 and 19370 and 18920 (TNF 60 min); 19070 and 18960 and 19260 and 19280 (TNF 80 min); 19610 and 18970 and 19990 and 19730 (TNF 100 min); 20170 and 20220 and 20080 and 18790 (TNF 120 min). For the same compound, the “IKB with CHX Subtract reagent background” value runs as follows: (TNF 0 min) 43590 and 45890 and 42330 and 48460; (TNF 5 min) 46330 and 50240 and 53830 and 51550; (TNF 10 min) 28540 and 33680 and 33550 and 33520; (TNF 20 min) 7990 and 12090 and 13510; (TNF 30 min) 6000 and 6170 and 9640 and 9820; (TNF 40 min) 5500 and 6180 and 8730 and 7730. The “IKB with CHX Subtract reagent background” value is 6620 and 5660 and 7600 and 7150 (TNF 60 min); 7300 and 7190 and 7490 and 7510 (TNF 80 min); 7840 and 7200 and 8220 and 7960 (TNF 100 min); 8400 and 8450 and 8310 and 7020 (TNF 120 min). The “IkB Average” value reads like this: (TNF 0 min) 45068; (TNF 5 min) 50488; (TNF 10 min) 32323; (TNF 20 min) 10395; (TNF 30 min) 7908; (TNF 40 min) 7035. Also, the “IkB Average” value runs as follows: (TNF 60 min) 6758; (TNF 80 min) 7373; (TNF 100 min) 7805; (TNF 120 min) 8045.
With `C[C@@H]1C[C@@H]([C@H](O)CC2CC(=O)NC(=O)C2)C(=O)[C@@H](C)C1` [cycloheximide], the “IκBα after the degradation phase (de novo synthesis)” value (MCF-7 cells, TNFα 50 ng per ml, 20 µg per ml added after 30 min) is “not detected”.
